Experimental data reported in patent US20050261472A1, “Binding moieties for fibrin” (Dyax Corp., priority 1999, published 2005).
Bridge positions count the residues as written; N and C are the ends. Peptide text beside a SMILES is read from it.

T1: dried fibrin (Homo sapiens, UniProt P02671+P02675+P02679)
T1 construct: Thrombin cleavage at the Arg16-Arg17 bond in the Ax chains and at the Arg14-Gly15 bond on the BP chains releases fibrinopeptides A and B; host or cells: fibrinogen solution clotted with thrombin in 96-well plates and dried at 37 C
T1 sequence (P02671 36-629 limits assumed): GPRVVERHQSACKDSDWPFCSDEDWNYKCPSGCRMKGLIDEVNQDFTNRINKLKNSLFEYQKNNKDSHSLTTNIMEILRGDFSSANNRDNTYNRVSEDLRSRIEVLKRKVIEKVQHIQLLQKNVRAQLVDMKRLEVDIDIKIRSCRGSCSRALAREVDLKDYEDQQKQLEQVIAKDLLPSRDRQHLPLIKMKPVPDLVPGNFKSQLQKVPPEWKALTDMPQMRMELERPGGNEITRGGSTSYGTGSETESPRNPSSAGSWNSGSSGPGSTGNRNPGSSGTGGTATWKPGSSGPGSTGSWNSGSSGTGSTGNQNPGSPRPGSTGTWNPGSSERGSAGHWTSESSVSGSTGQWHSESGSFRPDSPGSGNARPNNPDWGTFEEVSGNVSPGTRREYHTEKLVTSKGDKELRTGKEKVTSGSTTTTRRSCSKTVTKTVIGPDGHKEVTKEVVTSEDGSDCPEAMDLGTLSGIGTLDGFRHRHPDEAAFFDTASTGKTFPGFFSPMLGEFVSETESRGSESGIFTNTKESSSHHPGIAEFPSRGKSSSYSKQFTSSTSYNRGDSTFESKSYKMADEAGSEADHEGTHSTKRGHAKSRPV
T1 sequence (P02675 45-491 limits assumed): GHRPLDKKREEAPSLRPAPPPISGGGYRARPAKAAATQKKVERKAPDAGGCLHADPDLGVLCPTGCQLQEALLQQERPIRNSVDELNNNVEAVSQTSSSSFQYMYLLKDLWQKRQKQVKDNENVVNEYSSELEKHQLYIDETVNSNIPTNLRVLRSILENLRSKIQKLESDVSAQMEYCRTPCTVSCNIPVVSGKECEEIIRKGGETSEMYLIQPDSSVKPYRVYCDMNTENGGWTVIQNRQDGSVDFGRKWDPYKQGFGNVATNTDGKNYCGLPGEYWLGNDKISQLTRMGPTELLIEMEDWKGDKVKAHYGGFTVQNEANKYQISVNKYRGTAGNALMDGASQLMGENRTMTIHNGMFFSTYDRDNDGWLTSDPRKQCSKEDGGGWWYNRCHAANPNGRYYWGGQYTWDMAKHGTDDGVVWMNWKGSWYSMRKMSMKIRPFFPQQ
T1 sequence (P02679 27-437 isoform P02679-2 limits assumed): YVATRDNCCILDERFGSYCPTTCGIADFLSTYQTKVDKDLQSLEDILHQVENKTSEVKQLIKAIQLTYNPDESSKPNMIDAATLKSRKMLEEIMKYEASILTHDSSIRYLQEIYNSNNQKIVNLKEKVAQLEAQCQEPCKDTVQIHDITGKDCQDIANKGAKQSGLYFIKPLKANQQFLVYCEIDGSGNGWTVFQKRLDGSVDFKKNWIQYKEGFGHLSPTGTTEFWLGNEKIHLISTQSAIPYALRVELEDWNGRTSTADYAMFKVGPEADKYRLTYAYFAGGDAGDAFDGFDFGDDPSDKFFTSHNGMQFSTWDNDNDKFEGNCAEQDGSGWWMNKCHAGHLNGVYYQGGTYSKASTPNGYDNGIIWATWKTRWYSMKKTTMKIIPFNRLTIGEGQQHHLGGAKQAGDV

T2: fibrin (Homo sapiens, UniProt P02671+P02675+P02679)
T2 construct: Thrombin cleavage at the Arg16-Arg17 bond in the Ax chains and at the Arg14-Gly15 bond on the BP chains releases fibrinopeptides A and B; host or cells: fibrinogen solution clotted with thrombin in 96-well plates and dried at 37 C
T2 sequence (P02671 36-629 limits assumed): T1 sequence (P02671 36-629 limits assumed)
T2 sequence (P02675 45-491 limits assumed): T1 sequence (P02675 45-491 limits assumed)
T2 sequence (P02679 27-437 isoform P02679-2 limits assumed): T1 sequence (P02679 27-437 isoform P02679-2 limits assumed)

B1: TN6-6 phage isolate … (peptide, not shown: large carriers)
peptide: WFHCPYDLCHIL
B2: TN10-9 phage isolate … (peptide, not shown: large carriers)
peptide: NHGCYNSYGVPYCDYS
B3: TN10-9 phage isolate … (peptide, not shown: large carriers)
peptide: RFLCYDSYYHWWCSHH
B4: TN6-6 phage isolate … (peptide, not shown: large carriers)
peptide: QWECPYGLCWIQ

How the values were obtained:
[1] = target: T3, DD(E) (Homo sapiens, UniProt P02671+P02675+P02679); experiment: dissociation constant against fibrin-derived polypeptide DD(E); format: binding; settings: read-out: Kd DD(E)
T3 construct: host or cells: purchased fibrinogen clotted with thrombin, digested with plasmin, then purified by ammonium sulfate cuts and Sephacryl S200
Experimental: The soluble fibrin-derived polypeptide DD(E) was prepared following a modification of a published method (Moskoitz and Budzynksi, Biochemistry, 33: 12937-12944 (1994) and references therein). Fibrinogen containing a Factor XIII trace impurity (1 g, Grade L; purchased from American Diagnostica) was dissolved in TBS buffer and dialyzed overnight against TBS containing 5 mM citrate. The fibrinogen concentration was adjusted to 3.0 mg/ml and CaCl2 was added to a concentration of 10 mM. Clotting of the fibrinogen was initiated by the addition of thrombin to 0.5 U/ml and the clot was incubated for 3 hours at 37° C. The clot was cut up with a spatula to release water and to concentrate the clot. The clot pieces were washed twice with TBS.Ca buffer (TBS containing 2 mM CaCl2) and were centrifuged at 4,000×g to compact the clots between washes. The clot material was resuspended in 250 ml TBS containing 25 mM CaCl2 and 2 K.I.U. plasmin per mg fibrin. The clots were digested overnight at 20° C. Undigested clot was removed by pipette, and the supernatant was shaken with 10 ml of Lysine Sepharose (Pharmacia) for 30 minutes and filtered to remove the resin. Aprotinin was added to the filtrate to a concentration of 500 U/μL. Ammonium Sulfate was added to 30% saturation and the precipitated protein was removed by centrifugation. More ammonium sulfate was added to the supernatant to a final concentration of 50% saturation, and the precipitated protein was concentrated by centrifugation. The pellets, containing DD(E), were resuspended in a small volume of buffer (50 mM Tris, 150 mM NaCl, 2 mM CaCl2) (<10 ml) and chromatographed on a Sephacryl S200 (Pharmacia) size exclusion column (5×100 cm) in the same buffer. Fractions of protein eluted from the column were assayed by SDS-PAGE for DD(E). DD(E) contains subunits of 55 kD (Fragment E) and 190 kD (Fragment DD). […]
Dissociation constants were determined against DD(E) as described above.

[2] = target: T1, dried fibrin; experiment: dissociation constant against dried fibrin (free peptide by mass spectrometry); format: binding
Experimental: A fibrinogen solution was prepared at 10 mg/ml (or at twice the concentration of fibrin desired) in TBS buffer (50 mM Tris, 150 mM NaCl, pH 7.4). The fibrinogen solution typically contained ˜17 mM citrate. Subsequently, a solution was prepared containing 2 U/ml thrombin, 20 mM CaCl2, and 5 mM ε-aminocaproic acid in TBS. The fibrinogen solution and thrombin solution were mixed 1:1 in the wells of a 96-well plate, aliquoting 50 μL of each solution in each well (total volume=100 μL). The plates were evaporated to dryness overnight at 37° C. The polypeptide to be tested, dissolved in water, was added to each well at concentrations between 1-200 μM. A typical binding assay contained 24 points at concentrations of 2, 4, 6, 8, 10, 12, 14, 17, 20, 23, 26, 30, 35, 40, 45, 50, 60, 70, 80, 100, 125, 150, 175, and 200 μM. The plate containing the peptide and (rehydrated) dried fibrin was covered and incubated at 37° C. on a shaker table for 2 hours.
The supernatant in each well was removed by pipette and the concentration of the polypeptide was measured by mass spectrometry. The ion current detected at the mass of the peptide was monitored after injection of a sample into the mass spectrometer. The area-under-the-peak was quantitated and compared to standards of known concentration. The concentration of peptide in the supernatant is equal to the concentration of free peptide. The concentration of bound peptide was determined by subtracting the concentration of free peptide from the total (starting) concentration. A plot of [Bound Peptide] vs. [Free Peptide] was used to determine the Kd and the concentration of bound peptide at saturation. The curve was fit to the equation: [Bound]=N×[Free]/(Kd+[Free]) where [Bound] is the concentration of bound polypeptide, [Free] is the concentration of free polypeptide, Kd is the dissociation constant (equal to the reciprocal of Ka) and N is the concentration of binding sites. The number of binding sites per fibrin molecule was equal to the lo concentration of binding sites determined by the [Bound Polypeptide] vs. [Free Polypeptide] plot, divided by the concentration of fibrin (15 μM) used in the assay.

[3] = target: T2, fibrin; experiment: dried fibrin plate ELISA of phage isolates; format: binding; settings: phage isolates from TN7 library; symbols not defined
Experimental: For screening libraries to isolate binding moieties for fibrin, two fibrin targets, i.e., synthetic fibrin clots and then a soluble fibrin fragment, DD(E), were prepared. To prepare fibrin for screening, dilute fibrin clots were formed in the wells of a 96-well plate, dried down to a thin layer, and then rehydrated prior to library screening. In a typical procedure, a 0.15 mg/ml fibrinogen solution was prepared in TBS buffer (50 mM Tris, 150 mM NaCl, pH 7.4). A solution containing 2 U/ml thrombin, 10 mM CaCl2, and 5 mM ε-aminocaproic acid in TBS was prepared. The fibrinogen solution and thrombin solution were mixed 1:1 in the wells of a 96-well plate, aliquoting 25 μL of each solution in each well (total volume=50 μL). The plates were evaporated to dryness by incubating them at 37° C. overnight. Just before a phage library was added to the dried fibrin target, the fibrin wells were washed three times for 10 minutes with phage blocking buffer (TBS containing 2 mM CaCl2, 0.1% Tween-20, and 0.1% human serum albumin (HSA)).
After five rounds of selection, the eluted phage were propagated and a portion plated to isolate phage plaques arising from individual clones. Ninety such clones were selected randomly, propagated, and tested individually for binding to fibrin in a dried fibrin plate assay. Dried fibrin plates were prepared as described above for the library screening. Phage samples (˜10^9 phage each) were incubated in the dried fibrin plate wells in binding buffer (50 mM Tris, 150 mM NaCl, 2 mM CaCl2, 0.05% Tween-20) containing 0.1% HSA. After 1 hour, the plates were washed 5 times with binding buffer. Anti-M13 antibody conjugated to horseradish peroxidase (Pharmacia) was added at 1/5000 dilution in binding buffer to the wells and incubated with the fibrin for 1 hour. The wells were again washed 5 times with binding buffer and the presence of the antibody/phage/fibrin complex was measured with HRP calorimetric reagents (3,3′,5,5′-tetrarnethylbenzidine (TMB) and H2O2). A high absorbance at 595 nm (due to oxidized TMB) was indicative of a tight phage/fibrin interaction, and phage clones corresponding to those wells were identified as bearing fibrin-binding moieties.
The amino acid sequence data from these phage isolates were sorted according to the degree of similarity and response in the fibrin ELISA assay.

[4] = target: DD(E) soluble fibrin-derived polypeptide (UniProt P02671); experiment: Kd against DD(E) target, 'as described above'

| Molecule | Kd [1] [µM] | Kd [2] [µM] | relative binding [3] | other results |
| --- | --- | --- | --- | --- |
| H-LPSDYYGTSLD-NH2 [compound 38] | > 100 | > 100 | – | – |
| CC(C)C[C@H](NC(=O)[C@@H]1CSSC[C@H](NC(=O)[C@@H]2CCCN2C(=O)[C@@H](N)CC(C)C)C(=O)N[C@@H](CC(=O)O)C(=O)N[C@@H](Cc2ccc(O)cc2)C(=O)N[C@@H](Cc2ccc(O)cc2)C(=O)NCC(=O)N[C@@H](C)C(=O)N1)C(=O)N[C@@H](CC(=O)O)C(N)=O [SEQ ID NO: 46, LPCDYYGACLD] (H-LPCDYYGACLD-NH2; disulfide 3-9) | > 100 | > 100 | – | – |
| 10 (FSCWYSLHCHR; synthetic fibrin binding peptide) [compound 10] | – | – | + + + | – |
| 9 (LPCDYYGTCLD; synthetic fibrin binding peptide) [compound 9] | – | – | + + + | – |
| CC(C)C[C@H](NC(=O)[C@@H]1CSSC[C@H](NC(=O)[C@@H]2CCCN2C(=O)[C@@H](N)CC(C)C)C(=O)N[C@@H](C)C(=O)N[C@@H](Cc2ccc(O)cc2)C(=O)N[C@@H](Cc2ccc(O)cc2)C(=O)NCC(=O)N[C@@H]([C@@H](C)O)C(=O)N1)C(=O)N[C@@H](CC(=O)O)C(N)=O [SEQ ID NO: 42, LPCAYYGTCLD] (H-LPCAYYGTCLD-NH2; disulfide 3-9) | 5.9 | 23 | – | – |
| 7 (FACHYYGTCLH; synthetic fibrin binding peptide) [compound 7] | – | – | + + + | – |
| 8 (RPCDYYGTCFD; synthetic fibrin binding peptide) [compound 8] | – | – | + + + | – |
| CC(C)CC(N)C(=O)N1CCCC1C(=O)NC1CSSCC(C(=O)NC(CC(C)C)C(=O)NC(CC(=O)O)C(N)=O)NC(=O)C(C(C)O)NC(=O)CNC(=O)C(Cc2ccc(O)cc2)NC(=O)C(Cc2ccc(O)cc2)NC(=O)C(CC(=O)O)NC1=O (stereo not shown) [SEQ ID NO: 9, LPCDYYGTCLD] | 2.6 | 2.7 | – | – |
| CC(C)C[C@H](NC(=O)[C@@H]1CSSC[C@H](NC(=O)[C@H](C)NC(=O)[C@@H](N)Cc2ccccc2)C(=O)N[C@@H](Cc2c[nH]cn2)C(=O)N[C@@H](Cc2ccc(O)cc2)C(=O)N[C@@H](Cc2ccc(O)cc2)C(=O)NCC(=O)N[C@@H]([C@@H](C)O)C(=O)N1)C(=O)N[C@@H](Cc1c[nH]cn1)C(N)=O [SEQ ID NO: 7, FACHYYGTCLH] (H-FACHYYGTCLH-NH2; disulfide 3-9) | 7.3 | 23 | – | – |
| 4 (YYGT; recurrent motif among synthetic fibrin binding peptides) [compound 4] | – | – | + + + | – |
| B1 | – | – | – | Kd [4]: 1.4 µM |
| B2 | – | – | – | Kd [4]: 2.7 µM |
| B3 | – | – | – | Kd [4]: 10 µM |
| B4 | – | – | – | Kd [4]: 0.74 µM |
